# Assay results reported in patent publication US12599676B2, “Cytotoxic imidazo[1,2-A]pyridine compounds and their use in therapy” (MyricX Pharma Limited, priority 2022, dated 2026).
# Assays:
# [1] = Body weight in BT474 xenograft study; type: in vivo, NOD/SCID mice; details: trastuzumab or ADC Example 1 2.5 or 5 mg/kg; Example 12 2 mg/kg (Group 6)
# Protocol: During the study, body weights were measured three times weekly for all animals. Animals were given Diet Gel for the entire duration on the study.
# DOHH-2 tumor cells = assay: Subcutaneous xenograft DOHH-2 lymphoma model; type: in vivo, CB17/SCID mice; details: intraperitoneal dosing (Example 5: 7 or 20 mg/kg; Example 12: 0.7 or 2 mg/kg), QD cycles
# Protocol: The in vivo efficacy of certain Example compounds was assessed in a subcutaneous xenograft DOHH-2 Lymphoma Model using 10 female 6-8 week old CB17/SCID Mice. Each mouse was inoculated subcutaneously at the right front region with DOHH-2 tumor cells (5×10^6) in 0.1 ml of PBS mixed with matrigel (1:1 PBS:matrigel) for tumor development. The test compound administration started once the mean tumor size reached approximately 100-150 mm^3.
# Compounds were administered either IP (vehicle 10 mM sodium phosphate+0.2% Tween-80 (pH7.4) or orally (vehicle 15 Na2HPO4 buffer (10 mM) (pH 4.5)+0.2% tween 80). Tumor volumes were measured in two dimensions using a caliper, and the volume expressed in mm^3 using the formula: V=(L×W×W)/2, where V is tumor volume, L is tumor length (the longest tumor dimension) and W is tumor width (the longest tumor dimension perpendicular to L).
# Mice were dosed with Example 21 orally (12.5 or 25 mg/kg) once a day for 9 consecutive days (FIG. 3). Example 5 was dosed intraperitoneally (7 or 20 mg/kg) in a cycle consisting of administration QD for three days followed by a three day no-dosing period followed by QD dosing for a further three days (FIG. 4). Example 12 was dosed intraperitoneally (0.7 or 2 mg/kg) in a cycle consisting of administration QD for three days followed by a three day no-dosing period followed by QD dosing for a further three days (FIG. 5). In a separate study Example 12 was dosed at […] in a cycle consisting of administration QD for two days followed by either four or six day no-dosing period, and this cycle was repeated three times (FIG. 6).
# [2] = test system: DU4475 (human breast carcinoma); assay: Cell cytotoxicity CellTiter-Glo, DU4475; type: cell-based; details: DU-4475
# Protocol: Cells were seeded in 96-well microplates and treated with compounds or cisplatin (as a positive control) at 9 increasing concentrations in technical triplicate. […] On day 1, 90 μL of various cell suspensions with the number of cells ranging from 5000-8000 cells/well were seeded into wells of a 96-well plate (Corning). The number of cells to be seeded was previously determined. • 2. All 96-wells plates with cells were placed in an incubator overnight at 37° C. with 5% CO2. • 3. On day 2, cells were observed under a microscope ensuring the cells treated with vehicle control were in good condition. • 4. A dilution series of the test compounds and cisplatin were prepared at 10× the final concentrations required. 10 μL/well of 10× compound solution was added to the corresponding plates. The final volume was 100 μL/well for all the plates. Final DMSO concentration was 0.1%. • 5. On day 5 (after 72 hours of incubation), 50 μL of CTG reagent was added to each well. • 6. Contents were mixed for 5 minutes on an orbital shaker to facilitate cell lysis. • 7. The plate was allowed to incubate at room temperature for 10 minutes to stabilize luminescent signals. […]
Compound,body weights compared to vehicle control [1],tumour volume compared to vehicle (DOHH-2 tumor cells),IC50 [2]
"CNCc1cnc2ccc(-c3ccc(F)c(F)c3OCCc3c(C(O)C(C)(C)C)nn(C)c3C)cn12 (single isomer, unassigned) [Example 12, 1-(4-(2-(2,3-difluoro-6-(3-((methylamino)methyl)imidazo[1,2-a]pyridin-6-yl)phenoxy)ethyl)-1,5-dimethyl-1H-pyrazol-3-yl)-2,2-dimethylpropan-1-ol]",decreased significantly,significant reduction in tumour volume or reduced growth in tumour volume,
"Cc1c(CCOc2cc(Cl)ccc2-c2ccc3ncc(CCN)n3c2)c(C(=O)N(C)C)nn1C [Comparator Compound 1, 4-(2-{2-[3-(2-aminoethyl)imidazo[1,2-a]pyridin-6-yl]-5-chlorophenoxy}ethyl)-N,N,1,5-tetramethyl-1H-pyrazole-3-carboxamide, reference compound]",,,> 1000 nM
